From ChEMBL document CHEMBL3997816, “Discovery and characterization of [(cyclopentyl)ethyl]benzoic acid inhibitors of microsomal prostaglandin E synthase-1” (Bioorg Med Chem Lett, 2017)

How the values were obtained:
Prostaglandin E synthase [1] = target: T1, Prostaglandin E synthase (Homo sapiens, UniProt O14684); experiment: (§1) Inhibition of mPGES1 in human whole blood assessed as reduction in LPS-induced PGE2 production preincubated for 30 mins followed by LPS addition measured after 20 to 24 hrs by LC-MS analysis
T1 sequence (O14684 whole entry): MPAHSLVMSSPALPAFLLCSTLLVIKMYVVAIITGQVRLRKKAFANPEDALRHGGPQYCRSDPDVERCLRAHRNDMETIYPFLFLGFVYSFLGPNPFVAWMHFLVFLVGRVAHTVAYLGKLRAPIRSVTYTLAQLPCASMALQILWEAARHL

[2] = target: T2, Prostaglandin E synthase (Homo sapiens) (UniProt O14684); experiment: as §1
T2 sequence (whole entry): T1 sequence (O14684 whole entry)

[3] = Clearance in rat at 1 mg/kg, iv; type: ADME, organism-based; details: in vivo
CYP2C9 = CYP2C9 (Homo sapiens, UniProt P11712); experiment: Inhibition of CYP2C9 (unknown origin) in microsomes at 10 uM relative to control; type: ADME
Sequence of CYP2C9 (P11712 whole entry): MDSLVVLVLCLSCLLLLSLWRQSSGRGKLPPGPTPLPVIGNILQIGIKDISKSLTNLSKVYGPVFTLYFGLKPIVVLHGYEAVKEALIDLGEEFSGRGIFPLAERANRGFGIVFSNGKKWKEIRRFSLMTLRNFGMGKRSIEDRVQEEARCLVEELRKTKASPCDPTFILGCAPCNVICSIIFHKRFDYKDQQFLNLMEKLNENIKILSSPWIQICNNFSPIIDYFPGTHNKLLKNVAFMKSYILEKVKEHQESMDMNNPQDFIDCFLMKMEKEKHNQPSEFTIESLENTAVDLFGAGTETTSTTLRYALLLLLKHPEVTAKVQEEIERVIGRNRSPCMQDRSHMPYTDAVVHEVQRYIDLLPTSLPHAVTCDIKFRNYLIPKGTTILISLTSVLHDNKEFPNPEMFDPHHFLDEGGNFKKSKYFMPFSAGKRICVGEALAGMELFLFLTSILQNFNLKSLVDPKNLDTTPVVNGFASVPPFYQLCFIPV

Prostaglandin E synthase [4] = target: T1, Prostaglandin E synthase; experiment: Inhibition of human mPGES1 expressed in HEK293 microsomes assessed as reduction in PGE2 production using PGH2 as substrate after 2.5 mins by LC-MS analysis
Prostaglandin E synthase [5] = target: T1, Prostaglandin E synthase; experiment: Inhibition of mPGES1 in human A549 cells assessed as reduction in IL-1beta-induced PGE2 production preincubated for 30 mins followed by IL-1beta addition measured after 18 hrs by enzyme immunoassay; type: cell-based
[6] = target: T3, Prostaglandin G/H synthase 2 (Homo sapiens, UniProt P35354); experiment: Inhibition of COX2 in human A549 cells assessed as reduction in IL-1beta-induced PGI2 production preincubated for 30 mins followed by IL-1beta addition measured after 18 hrs by enzyme immunoassay; type: cell-based; details: a549, 18 h
T3 sequence (P35354 whole entry): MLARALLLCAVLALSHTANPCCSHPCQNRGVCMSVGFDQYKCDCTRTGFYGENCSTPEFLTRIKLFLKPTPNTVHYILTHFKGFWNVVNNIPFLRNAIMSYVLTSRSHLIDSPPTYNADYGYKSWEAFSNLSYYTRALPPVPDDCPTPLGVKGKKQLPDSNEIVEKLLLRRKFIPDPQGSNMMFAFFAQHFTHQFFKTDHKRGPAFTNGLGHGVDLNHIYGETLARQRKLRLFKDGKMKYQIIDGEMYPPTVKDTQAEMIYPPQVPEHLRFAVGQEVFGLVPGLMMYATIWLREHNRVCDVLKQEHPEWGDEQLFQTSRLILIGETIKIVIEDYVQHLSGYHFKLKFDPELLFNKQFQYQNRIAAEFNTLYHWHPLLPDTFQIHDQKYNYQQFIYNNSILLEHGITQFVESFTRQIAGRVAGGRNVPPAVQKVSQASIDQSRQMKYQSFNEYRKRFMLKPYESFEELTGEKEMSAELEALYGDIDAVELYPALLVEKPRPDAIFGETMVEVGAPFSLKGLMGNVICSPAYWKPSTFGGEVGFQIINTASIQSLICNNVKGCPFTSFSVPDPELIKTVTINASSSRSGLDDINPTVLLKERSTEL

[7] = target: T4, Prostaglandin G/H synthase 1 (Homo sapiens, UniProt P23219); experiment: Inhibition of COX1 in human whole blood assessed as effect on LPS-induced PGF2alpha level preincubated for 30 mins followed by LPS addition measured after 20 to 24 hrs by LC-MS analysis
T4 sequence (P23219 whole entry): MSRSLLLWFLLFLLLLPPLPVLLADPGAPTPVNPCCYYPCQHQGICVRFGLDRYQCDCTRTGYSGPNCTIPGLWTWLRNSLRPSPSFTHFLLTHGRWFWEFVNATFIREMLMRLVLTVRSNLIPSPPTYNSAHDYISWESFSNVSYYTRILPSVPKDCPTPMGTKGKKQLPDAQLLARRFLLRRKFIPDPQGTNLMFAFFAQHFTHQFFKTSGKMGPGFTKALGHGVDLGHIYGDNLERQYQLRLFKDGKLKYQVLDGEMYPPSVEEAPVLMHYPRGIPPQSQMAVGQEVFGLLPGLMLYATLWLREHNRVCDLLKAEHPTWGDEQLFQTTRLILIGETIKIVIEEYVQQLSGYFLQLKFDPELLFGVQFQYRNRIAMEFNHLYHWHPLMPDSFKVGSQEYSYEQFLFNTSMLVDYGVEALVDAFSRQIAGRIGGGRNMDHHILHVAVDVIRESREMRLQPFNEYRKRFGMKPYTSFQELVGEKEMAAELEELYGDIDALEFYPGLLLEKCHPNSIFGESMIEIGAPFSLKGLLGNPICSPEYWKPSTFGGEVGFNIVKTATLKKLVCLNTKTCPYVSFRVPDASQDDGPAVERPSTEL

[8] = target: T4, Prostaglandin G/H synthase 1; experiment: Inhibition of COX1 in human whole blood assessed as effect on LPS-induced TXB2 level preincubated for 30 mins followed by LPS addition measured after 20 to 24 hrs by LC-MS analysis
[9] = Cmax in dog at 5 mg/kg, po; type: ADME, organism-based, Canis lupus familiaris; design: dose 5 mg/kg, route oral; details: in vivo
[10] = target: T5, Prostaglandin G/H synthase 1 (Ovis aries, UniProt P05979); experiment: Inhibition of ovine COX1 assessed as reduction in PGF2alpha production at 10 uM using arachidonic acid as substrate by colorimetric method; details: sheep
T5 sequence (P05979 whole entry): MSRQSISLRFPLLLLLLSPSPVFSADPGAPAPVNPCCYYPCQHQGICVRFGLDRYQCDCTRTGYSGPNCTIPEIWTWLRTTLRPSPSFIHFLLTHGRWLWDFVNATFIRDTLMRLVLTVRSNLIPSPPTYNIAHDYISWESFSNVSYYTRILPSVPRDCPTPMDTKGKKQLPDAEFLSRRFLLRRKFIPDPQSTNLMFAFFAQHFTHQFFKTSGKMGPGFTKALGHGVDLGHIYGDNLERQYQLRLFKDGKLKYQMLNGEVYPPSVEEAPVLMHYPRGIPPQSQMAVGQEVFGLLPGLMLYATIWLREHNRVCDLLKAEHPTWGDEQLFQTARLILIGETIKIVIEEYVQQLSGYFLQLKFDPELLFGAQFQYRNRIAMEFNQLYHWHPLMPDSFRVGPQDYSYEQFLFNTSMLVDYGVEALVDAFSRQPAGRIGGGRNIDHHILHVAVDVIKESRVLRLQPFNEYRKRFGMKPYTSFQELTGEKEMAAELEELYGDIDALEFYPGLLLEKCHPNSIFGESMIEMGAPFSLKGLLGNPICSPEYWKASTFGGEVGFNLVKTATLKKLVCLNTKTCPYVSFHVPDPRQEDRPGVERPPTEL

[11] = Volume of distribution at steady state in dog at 1 mg/kg, iv; type: ADME, organism-based, Canis lupus familiaris; details: in vivo, read-out: Vdss
Homo sapiens = species: Homo sapiens; experiment: Selectivity index, ratio of compound effect for inhibition of human mPGES1 expressed in HEK293 microsomes to compound effect for inhibition of human COX2
[12] = Cmax in rat at 5 mg/kg, po; type: ADME, organism-based; design: dose 5 mg/kg, route oral; details: in vivo
[13] = Selectivity index, ratio of compound effect for inhibition of human mPGES1 expressed in HEK293 microsomes to compound effect for inhibition of ovine COX1
[14] = Clearance in dog at 1 mg/kg, iv; type: ADME, organism-based, Canis lupus familiaris; details: in vivo
[15] = target: T3, Prostaglandin G/H synthase 2; experiment: Inhibition of human COX2 assessed as reduction in PGF2alpha production at 10 uM using arachidonic acid as substrate by colorimetric method
[16] = Oral bioavailability in dog at 3 mg/kg; details: in vivo
[17] = Volume of distribution at steady state in rat at 1 mg/kg, iv; type: ADME, organism-based; details: in vivo, read-out: Vdss
[18] = target: Voltage-gated inwardly rectifying potassium channel KCNH2 (Homo sapiens, UniProt Q12809); experiment: Inhibition of human ERG expressed in CHO cells at 10 uM by automated patch clamp method; type: cell-based
Sequence of Voltage-gated inwardly rectifying potassium channel KCNH2 (Q12809 whole entry): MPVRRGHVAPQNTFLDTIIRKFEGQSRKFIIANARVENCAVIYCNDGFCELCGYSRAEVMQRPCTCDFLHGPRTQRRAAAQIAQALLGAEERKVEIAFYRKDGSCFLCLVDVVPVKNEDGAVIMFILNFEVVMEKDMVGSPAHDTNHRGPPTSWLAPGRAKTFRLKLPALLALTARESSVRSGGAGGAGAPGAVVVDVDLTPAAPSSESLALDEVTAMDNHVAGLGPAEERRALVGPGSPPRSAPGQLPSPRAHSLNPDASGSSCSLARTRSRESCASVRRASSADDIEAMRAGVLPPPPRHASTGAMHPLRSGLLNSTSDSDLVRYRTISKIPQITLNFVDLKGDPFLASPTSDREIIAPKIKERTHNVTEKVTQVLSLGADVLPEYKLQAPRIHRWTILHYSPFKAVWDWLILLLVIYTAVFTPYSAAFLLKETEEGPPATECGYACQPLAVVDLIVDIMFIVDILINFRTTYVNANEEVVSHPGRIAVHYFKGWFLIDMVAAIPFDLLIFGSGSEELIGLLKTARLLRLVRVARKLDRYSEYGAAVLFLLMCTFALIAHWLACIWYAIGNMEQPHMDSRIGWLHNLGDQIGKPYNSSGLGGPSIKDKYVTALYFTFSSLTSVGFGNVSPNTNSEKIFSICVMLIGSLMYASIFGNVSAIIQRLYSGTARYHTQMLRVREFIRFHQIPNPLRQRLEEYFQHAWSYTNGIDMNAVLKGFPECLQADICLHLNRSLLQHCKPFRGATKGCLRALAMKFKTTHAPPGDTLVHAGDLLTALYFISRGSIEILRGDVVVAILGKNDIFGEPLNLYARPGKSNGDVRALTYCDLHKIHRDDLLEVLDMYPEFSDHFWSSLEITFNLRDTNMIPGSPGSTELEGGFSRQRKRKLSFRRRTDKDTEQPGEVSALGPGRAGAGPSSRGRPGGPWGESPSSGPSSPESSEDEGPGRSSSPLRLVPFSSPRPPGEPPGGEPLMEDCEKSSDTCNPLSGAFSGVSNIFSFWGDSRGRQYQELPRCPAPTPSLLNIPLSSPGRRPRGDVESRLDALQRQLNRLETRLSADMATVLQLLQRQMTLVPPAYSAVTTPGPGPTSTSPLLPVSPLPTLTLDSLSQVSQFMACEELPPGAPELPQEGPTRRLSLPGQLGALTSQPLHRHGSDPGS

Canis familiaris = experiment: Time at which plasma concentration stays above human whole blood IC80 level in dog at 3 mg/kg, po administered as single dose; design: species or system Canis lupus familiaris
[19] = target: T4, Prostaglandin G/H synthase 1; experiment: Inhibition of COX1 in human whole blood assessed as effect on LPS-induced TXB2 level up to 10 uM preincubated for 30 mins followed by LPS addition measured after 20 to 24 hrs by LC-MS analysis
[20] = target: T4, Prostaglandin G/H synthase 1; experiment: Inhibition of COX1 in human whole blood assessed as effect on LPS-induced PGF2alpha level up to 10 uM preincubated for 30 mins followed by LPS addition measured after 20 to 24 hrs by LC-MS analysis
Rattus norvegicus = experiment: Time at which plasma concentration stays above human whole blood IC80 level in rat at 5 mg/kg, po administered as single dose
[21] = Oral bioavailability in rat at 5 mg/kg; type: ADME, organism-based; details: in vivo
[22] = target: T3, Prostaglandin G/H synthase 2; experiment: Inhibition of COX2 in human A549 cells assessed as reduction in IL-1beta-induced PGI2 production up to 10 uM preincubated for 30 mins followed by IL-1beta addition measured after 18 hrs by enzyme immunoassay; type: cell-based; details: a549, 18 h

`O=C(O)c1ccc(Cl)cc1CC[C@@H]1CCC[C@@H]1NC(=O)C1CCN(c2ccc(C(F)(F)F)cc2)CC1` gave an IC50 (Prostaglandin E synthase [1]) of 1 nM, an IC80 [2] of 5 nM and a clearance [3] of 16 mL/min/kg. For the same compound, the inhibition at 10 µM (CYP2C9) was 51% and the IC50 (Prostaglandin E synthase [4]) was 1 nM.
For `CC(C)(C)C(=O)N[C@H]1CCC[C@H]1CNc1cc(Cl)ccc1C(=O)O`, the IC50 (Prostaglandin E synthase [1]) was 8910 nM and the IC50 (Prostaglandin E synthase [4]) was 43 nM.
Compound `O=C(O)c1ccc(Cl)cc1NC[C@@H]1CCC[C@@H]1NC(=O)C1CCN(c2ccc(C(F)(F)F)cc2)CC1` has an IC50 (Prostaglandin E synthase [5]) of 3.5 nM, an IC50 (Prostaglandin E synthase [1]) of 3 nM and an IC80 [2] of 8 nM. The clearance [3] was 40 mL/min/kg, the inhibition at 10 µM (CYP2C9) was 71% and the “inhibition (INH)” value [6] was “Not Active”. For the same compound, the “inhibition (INH)” value [7] was “Not Active”, the “inhibition (INH)” value [8] was “Not Active” and the IC50 (Prostaglandin E synthase [4]) was 4 nM.
`O=C(O)c1ccccc1CC[C@@H]1CCC[C@@H]1NC(=O)C1CCN(c2ccc(C(F)(F)F)cc2)CC1` showed an IC50 (Prostaglandin E synthase [1]) of 5 nM, an IC80 [2] of 40 nM and a clearance [3] of 5 mL/min/kg. The inhibition at 10 µM (CYP2C9) was 5% and the IC50 (Prostaglandin E synthase [4]) was 2 nM.
`O=C(O)c1ccc(Cl)cc1NC[C@@H]1CCC[C@@H]1NC(=O)C1CCN(c2ccccc2)CC1` gave an IC50 (Prostaglandin E synthase [5]) of 21 nM, an IC50 (Prostaglandin E synthase [1]) of 81 nM and an IC80 [2] of 1370 nM. The clearance [3] was 81 mL/min/kg, the inhibition at 10 µM (CYP2C9) was 46% and the “inhibition (INH)” value [6] was “Not Active”. The “inhibition (INH)” value [7] was “Not Active”, the “inhibition (INH)” value [8] was “Not Active” and the IC50 (Prostaglandin E synthase [4]) was 2 nM.
`O=C(O)c1ccccc1CC[C@@H]1CCC[C@@H]1NC(=O)C1CCN(c2ccc(C(F)(F)F)cn2)CC1` showed an IC50 (Prostaglandin E synthase [1]) of 34 nM, an IC80 [2] of 267 nM and a clearance [3] of 6 mL/min/kg. For the same compound, the inhibition at 10 µM (CYP2C9) was 22% and the IC50 (Prostaglandin E synthase [4]) was 2 nM.
`O=C(O)c1ccc(F)cc1CC[C@@H]1CCC[C@@H]1NC(=O)C1CCN(c2ccc(C(F)(F)F)cc2)CC1` showed an IC50 (Prostaglandin E synthase [1]) of 6 nM, an IC80 [2] of 41 nM and a clearance [3] of 12 mL/min/kg. It also gave an inhibition at 10 µM (CYP2C9) of 40% and an IC50 (Prostaglandin E synthase [4]) of 1 nM.
`O=C(O)c1cccnc1CC[C@@H]1CCC[C@@H]1NC(=O)C1CCN(c2ccc(C(F)(F)F)cc2)CC1` showed an IC50 (Prostaglandin E synthase [1]) of 21 nM, an IC80 [2] of 146 nM and a clearance [3] of 38 mL/min/kg. It also gave an IC50 (Prostaglandin E synthase [4]) of 6 nM.
With `O=C(O)c1ccccc1CC[C@@H]1CCC[C@@H]1NC(=O)C1CCN(c2ccc(OC(F)(F)F)cc2)CC1` the IC50 (Prostaglandin E synthase [1]) was 10 nM, the IC80 [2] was 43 nM and the clearance [3] was 17 mL/min/kg. It also gave an inhibition at 10 µM (CYP2C9) of 32% and an IC50 (Prostaglandin E synthase [4]) of 1 nM.
With `Cc1cccc2ccc(N3CCC(C(=O)N[C@H]4CCC[C@H]4CCc4ccccc4C(=O)O)CC3)nc12` the Cmax [9] was 4 µM, the “inhibition (INH)” value [10] was “Not Active” and the IC50 (Prostaglandin E synthase [1]) was 6 nM. The IC80 [2] was 24 nM, the Vd [11] was 1.2 L/kg and the Selectivity Index (Homo sapiens) was over 10000. The clearance [3] was 31 mL/min/kg, the inhibition at 10 µM (CYP2C9) was 14% and the Cmax [12] was 530 nM. For the same compound, the Selectivity Index [13] was over 10000, the clearance [14] was 6.5 mL/min/kg and the “inhibition (INH)” value [15] was “Not Active”. For the same compound, the bioavailability [16] was 68%, the Vd [17] was 4.8 L/kg and the “inhibition (INH)” value [18] was “Not Active”. The Time (Canis familiaris) was 24 h, the “inhibition (INH)” value [19] was “Not Active” and the “inhibition (INH)” value [20] was “Not Active”. For the same compound, the Time (Rattus norvegicus) was over 12 h, the bioavailability [21] was 52% and the “inhibition (INH)” value [22] was “Not Active”. It also gave an IC50 (Prostaglandin E synthase [4]) of 1 nM.
For `O=C(O)c1ccc(Cl)cc1OC[C@@H]1CCC[C@@H]1NC(=O)C1CCN(c2ccc(C(F)(F)F)cc2)CC1`, the IC50 (Prostaglandin E synthase [1]) was 8 nM, the IC80 [2] was 25 nM and the clearance [3] was 57 mL/min/kg. It also gave an inhibition at 10 µM (CYP2C9) of 39% and an IC50 (Prostaglandin E synthase [4]) of 2 nM.
`Cc1ccc(C(=O)O)c(CC[C@@H]2CCC[C@@H]2NC(=O)C2CCN(c3ccc(C(F)(F)F)cc3)CC2)c1` showed an IC50 (Prostaglandin E synthase [1]) of 3 nM, an IC80 [2] of 10 nM and a clearance [3] of 9 mL/min/kg. For the same compound, the inhibition at 10 µM (CYP2C9) was 56% and the IC50 (Prostaglandin E synthase [4]) was 1 nM.
